For this assay, the system named is phosphorylation of Serine-9 residue in Glycogen Synthase Kinase-3beta as surrogate marker of cellular PKB (Akt) activity. The assay can be described thus: In vitro MDA-MB-468 human breast adenocarcinoma GSK-3 phosphorylation assay. The class given is cell-based. As to conditions: MDA-MB-468 cells, 2 hours compound incubation, mean IC50, read-out: Cell pGSK3b IC50. The source says: This assay determines the ability of test compounds to inhibit phosphorylation of Serine-9 residue in Glycogen Synthase Kinase-3beta (GSK-313) as a surrogate marker of cellular PKB (Akt) activity, as assessed using Acumen Explorer Fluorescent Plate-Reader technology. A MDA-MB-468 human breast adenocarcinoma cell line (LGC Promochem, Teddington, Middlesex, UK, Catalogue No. HTB-132) was routinely maintained in Dulbecco's modified Eagle's growth medium (DMEM; Invitrogen Limited, Paisley, UK Catalogue No. 11966-025) containing 10% heat-inactivated foetal calf serum (FCS; Sigma, Poole, Dorset, UK, Catalogue No. F0392) and 1% L-glutamine (Gibco, Catalogue No. 25030-024) at 37° C. with 5% CO2 up to a confluency of 70-90%.
For the phosphorylation assay, the cells were detached from the culture flask using Trypsin-EDTA (Invitrogen Limited, Catalogue No. 25300-062) and seeded into the wells of a black transparent-bottom Corning Costar Polystyrene 96 well plate (Fisher Scientific UK, Loughborough, Leicestershire, UK; Catalogue No. 3904 and DPS-130-020K) at a density of 5000 cells per well in 100 μl of complete growth media. The cells were incubated overnight at 37° C. with 5% CO2 to allow them to adhere.
On day 2, the cells were treated with test compounds and incubated for 2 hours at 37° C. with 5% CO2. Test compounds were prepared as 10mM stock solutions in DMSO and dosed directly to required concentration into test wells using non-contact (acoustic dispensing of multiple 2.5 nl droplets directly into assay wells) ECHO dosing technology (Labcyte Inc Sunnyvale, Calif., USA). Each plate contained control wells without test compound.
20 μl of fixing buffer (Phosphate Buffered Saline (PBS) containing 10% formaldehyde; Sigma; Catalogue No. F1635) was then added to each well to give a final well concentration 1.6%. Plates were then incubated for 30 minutes at room temperature prior to the fixative being removed. Each well was washed once with 250 μl of PBS and then 50 μl PBS added to each well. PBS was then aspirated and cells permeabilised and blocked by incubating each well with 50 μl of permeabilisation/blocking buffer (PBS containing 0.5% Tween 20 (Sigma; Catalogue No. P5927) and 5% Marvel Milk Powder (Andrews Pharmacy Ltd, Macclesfield, Cheshire, UK; Catalogue No. APC100199)) for 1 hour at room temperature prior to staining.
Following removal of Perm/Block buffer, 50 μl of primary anti-phospho-GSK-3β antibody (Cell Signalling Technology (New England Biolabs (Uk) Ltd.), Hitchin, Hertfordshire, UK; Catalogue No.9336 diluted 1:400 in Blocking buffer (PBS containing 5% Marvel and 0.05% Tween/Polysorbate 20) was added to each well and incubated overnight at 4° C.
Each well was washed three times in 250 μl of wash buffer (PBS containing 0.05% polysorbate 20), and cells incubated for 1 hour at room temperature with 50 μl of secondary fluorescently-labelled anti-rabbit Alexa Fluor 488 antibody (Molecular Probes, Invitrogen Limited, Catalogue No. A11008) diluted 1:750 in blocking buffer. Plates were washed three times in 250 μl of wash buffer and stored containing 50 μl of PBS at 4° C. until required.
Plates were analysed using an Acumen Explorer Plate-reader to quantify level of fluorescent signal that represents quantity of phosphorylated-GSK-313.
IC50 calculation—IC50 is the concentration of compound required to give 50% effect over the range of activity affected by the compound, between maximum (no compound) and minimum (excess level of compound) response control data. IC50 values were determined by fitting background corrected, dose response assay data to a 4 parameter logistic curve fit equation model with the minimum response set to zero. This was done using an in-house developed algorithm within the Origin graphing software package (OriginLab Corporation, Northampton, Mass., USA). […]
The term IC50 denotes the point on the concentration scale where inhibition reaches its midpoint. For `NC1(c2nc3c(-c4cccc(S(N)(=O)=O)c4)cccc3[nH]2)CCN(c2ncnc3[nH]ccc23)CC1` [Example 94, 3-[2-[4-amino-1-(7H-pyrrolo[3,2-e]pyrimidin-4-yl)piperidin-4-yl]-1H-benzimidazol-4-yl]benzenesulfonamide], the IC50 was 0.047 µM.
As to `CS(=O)(=O)c1cccc(-c2cccc3[nH]c(C4(N)CCN(c5ncnc6[nH]ccc56)CC4)nc23)c1` [Example 95, 4-[4-(3-methylsulfonylphenyl)-1H-benzimidazol-2-yl]-1-(7H-pyrrolo[3,2-e]pyrimidin-4-yl)piperidin-4-amine], the half-maximal inhibitory concentration (IC50) came out at 0.049 µM.
On to `NC1(c2nc3c(-c4cncc(F)c4)cccc3[nH]2)CCN(c2ncnc3[nH]ccc23)CC1` [Example 96, 4-[4-(5-fluoropyridin-3-yl)-1H-benzimidazol-2-yl]-1-(7H-pyrrolo[3,2-e]pyrimidin-4-yl)piperidin-4-amine], for which the half-inhibitory concentration (IC50) amounted to 0.044 µM.
`Cc1ccc2[nH]c(C3(CN)CCN(c4ncnc5[nH]ccc45)CC3)nc2c1` [Example 97, (4-(5-methyl-1H-benzo[d]imidazol-2-yl)-1-(7H-pyrrolo[2,3-d]pyrimidin-4-yl)piperidin-4-yl)methanamine]: the half-maximal inhibitory concentration (IC50) came to 0.085 µM.
Take `Cc1ccc2[nH]c(C3(CN)CCN(c4ncnc5[nH]cc(Br)c45)CC3)nc2c1` [Example 98, (1-(5-bromo-7H-pyrrolo[2,3-d]pyrimidin-4-yl)-4-(5-methyl-1H-benzo[d]imidazol-2-yl)piperidin-4-yl)methanamine]: the IC50 was found to be 0.18 µM.
As to `NCC1(c2nc3c(-c4ccccc4)cccc3[nH]2)CCN(c2ncnc3[nH]ccc23)CC1` [Example 99, (4-(4-phenyl-1H-benzo[d]imidazol-2-yl)-1-(7H-pyrrolo[2,3-d]pyrimidin-4-yl)piperidin-4-yl)methanamine], the concentration for half-maximal inhibition (IC50) stood at 0.015 µM.
For `Cn1cc(-c2cccc3[nH]c(C4(CN)CCN(c5ncnc6[nH]ccc56)CC4)nc23)cn1` [Example 100] the value was 0.014 µM.
As to `NCC1(c2nc3c(C4CCOC4)cccc3[nH]2)CCN(c2ncnc3[nH]ccc23)CC1` (centres unmarked) [Example 101, [4-[4-(oxolan-3-yl)-1H-benzimidazol-2-yl]-1-(7H-pyrrolo[3,2-e]pyrimidin-4-yl)piperidin-4-yl]methanamine], the IC50 amounted to 0.0093 µM.
As to `NC1(c2nc3c(-c4ccccc4)cccc3[nH]2)CCN(c2ncnc3[nH]cnc23)CC1` [Example 103, 4-(4-Phenyl-1H-benzimidazol-2-yl)-1-(9H-purin-6-yl)piperidin-4-amine], the half-inhibitory concentration (IC50) was 0.033 µM.
For the compound `COc1ccc(-c2cccc3[nH]c(C4(N)CCN(c5ncnc6[nH]cnc56)CC4)nc23)cc1` [Example 104, 4-[4-(4-methoxyphenyl)-1H-benzimidazol-2-yl]-1-(9H-purin-6-yl)piperidin-4-amine], the IC50 was 0.12 µM.
In the case of `CS(=O)(=O)c1ccc(-c2cccc3[nH]c(C4(N)CCN(c5ncnc6[nH]cnc56)CC4)nc23)cc1` [Example 105, 4-[4-(4-methylsulfonylphenyl)-1H-benzimidazol-2-yl]-1-(9H-purin-6-yl)piperidin-4-amine], the 50% inhibitory concentration (IC50) was found to be 0.2 µM.
On to `NC1(c2nc3c(-c4ccoc4)cccc3[nH]2)CCN(c2ncnc3[nH]cnc23)CC1` [Example 106, 4-(4-furan-3-yl-1H-benzimidazol-2-yl)-1-(9H-purin-6-yl)piperidin-4-amine], for which the half-maximal inhibitory concentration (IC50) came to 0.052 µM.
Turning to `NC1(c2nc3c(-c4ccccc4)cccc3[nH]2)CCN(c2ncnc3[nH]ncc23)CC1` [Example 108, 4(4-phenyl-1H-benzo[d]imidazol-2-yl)-1-(1H-pyrazolo[3,4-d]pyrimidin-4-yl)piperidin-4-amine], the 50% inhibitory concentration (IC50) is 0.35 µM.
As for `COc1ccc(-c2cccc3[nH]c(C4(N)CCN(c5ncnc6[nH]ncc56)CC4)nc23)cc1` [Example 109, 4-[4-(4-methoxyphenyl)-1H-benzo[d]imidazol-2-yl)-1-(1H-pyrazolo[3,4-d]pyrimidin-4-yl)piperidin-4-amine], the half-inhibitory concentration (IC50) was 0.65 µM.
